Assay results as given in ChEMBL document CHEMBL1177690, “Target-specific control of lymphoid-specific protein tyrosine phosphatase (Lyp) activity” (Bioorg Med Chem, 2010).

Tests used:
[1] = molecular target: T1, Tyrosine-protein phosphatase non-receptor type 22 (Homo sapiens) (UniProt Q9Y2R2); test: Inhibition of Lyp expressed in Escherichia coli […]
T1 sequence (whole entry): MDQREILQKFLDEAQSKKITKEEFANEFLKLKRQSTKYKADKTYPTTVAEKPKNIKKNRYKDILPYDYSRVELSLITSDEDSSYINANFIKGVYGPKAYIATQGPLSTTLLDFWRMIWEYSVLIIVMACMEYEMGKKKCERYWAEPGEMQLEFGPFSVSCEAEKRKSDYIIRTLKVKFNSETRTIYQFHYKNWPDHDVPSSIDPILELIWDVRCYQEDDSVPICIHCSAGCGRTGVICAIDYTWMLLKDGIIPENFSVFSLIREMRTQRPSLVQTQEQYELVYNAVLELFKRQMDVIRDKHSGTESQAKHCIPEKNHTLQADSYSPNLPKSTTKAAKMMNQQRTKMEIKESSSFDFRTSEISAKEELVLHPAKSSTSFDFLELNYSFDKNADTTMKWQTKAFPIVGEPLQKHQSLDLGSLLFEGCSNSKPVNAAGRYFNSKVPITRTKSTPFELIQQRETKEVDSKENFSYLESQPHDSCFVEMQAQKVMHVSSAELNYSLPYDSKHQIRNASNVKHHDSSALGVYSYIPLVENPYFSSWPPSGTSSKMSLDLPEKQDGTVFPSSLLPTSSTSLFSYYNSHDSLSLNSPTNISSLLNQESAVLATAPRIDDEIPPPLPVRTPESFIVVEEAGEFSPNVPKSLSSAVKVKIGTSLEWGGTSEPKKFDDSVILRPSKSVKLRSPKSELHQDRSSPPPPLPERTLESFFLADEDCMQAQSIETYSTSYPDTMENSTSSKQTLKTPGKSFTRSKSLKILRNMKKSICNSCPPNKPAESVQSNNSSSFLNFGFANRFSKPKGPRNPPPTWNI

[2] = Activity at Lyp CCPGCC mutant expressed in Escherichia coli using pNPP as a substrate […]

For `O=C(O)c1ccccc1-c1c2ccc(=O)c([As]3SCCS3)c-2oc2c([As]3SCCS3)c(O)ccc12`, the Activity [1] was “Dose-dependent effect” and the kcat [2] was 0.057 s⁻¹.
